Laboratory results taken from US9545386B2, “Methods of treating infectious diseases” (SLIPPERY ROCK UNIVERSITY FOUNDATION, INC., priority 2007, dated 2017).
In brackets after ≈: the same amount, converted by molar mass.

Experiments:
[1] = test system: Trypanosoma avium trypomastigotes; assay: In vitro antitrypanosomal bioassay, trypomastigote counts (Probit LC50/LC95); format: cell-based; conditions: T. avium
Description: (§1) In this study, 75 μl of Locke's nematode saline (L.N.S.) solution with approximately 1.0×10^5 trypomastigotes/ml of each organism were placed in 15 wells of a cell culture plate. For T. mega, T. conorhini and T. avium, stock concentrations of eryngial (1, 2, 3 and 4 mg/ml) with 0.04% (w/v) Triton X-100 were prepared in L.N.S. Triton X-100 acted as an emulsifier for eryngial. Triplicate samples of each eryngial concentration were prepared by adding 75 μl of the stock to the wells with trypomastigotes of each species. The number of trypanosomes in each well therefore approximated 5×10^4/ml, while final concentrations of eryngial in the wells were 0.5, 1.0, 1.5, and 2.0 mg/ml, respectively. Each sample also had 0.02% Trition X-100. The control samples had no eryngial. The number of trypomastigotes that were present in 20 μl sub-samples of each well was determined using a hemacytometer at 0, 24 and 48 hr. A count of the trypanosomes in each grid was recorded and the average number of organisms per milliliter was determined. The above procedure was repeated to determine the effect of eryngial on T. rangeli. However, the final concentration of eryngial, the test compound, ranged from 0.15 to 0.9 mg/ml.

[2] = test system: Trypanosoma conorhini trypomastigotes; assay: as above; format: cell-based; conditions: T. conorhini; for 24 hr LC95 ± 95% confidence intervals: 24 hr in vitro
Description: as §1

[3] = test system: Trypanosoma mega trypomastigotes; assay: as above; format: cell-based; conditions: T. mega; for 24 hr LC95 ± 95% confidence intervals: 24 hr in vitro
Description: as §1

[4] = test system: Trypanosoma rangeli trypomastigotes; assay: as above; format: cell-based; conditions: T. rangeli; for 24 hr LC95 ± 95% confidence intervals: 24 hr in vitro, 0.02% Triton X-100; for 48 hr LC95 ± 95% confidence intervals: 48 hr in vitro
Description: as §1

[5] = test system: Enterococcus faecalis; assay: Antibacterial MIC/MBC, 96 well broth dilution; format: cell-based; conditions: E. faecalis, 24 hr in vitro, 0.02% Triton X-100
Description: (§2) Bacterial cultures were obtained from the American Type Culture Collection (ATCC), except for Streptococcus pyogenes, which was started from a Difco Bactrol disc. The other organisms were Enterococcus faecalis, Staphylococcus aureus, Escherichia coli, Salmonella typhimurium and Pseudomonas aeruginosa. Cultures were grown in Luria-Bertani (LB) broth. Fungi were obtained from Carolina Biological Supply Company (Aspergillus niger, Candida albicans and Cryptococcus neoformans); Presque Isle Cultures, Erie Pa. (Microsporum gypseum); or from ATCC (Penicillium marneffei). Fungal cultures were maintained in Sabouraud dextrose broth (SDB) or agar (SDA). All media components came from Difco.
(§3) Tests were done in flat-bottomed 96 well cell culture plates (Costar). All samples were done in duplicate. Eryngial was suspended in culture medium plus 0.04% Triton-X to make a 2% (20 mg/ml) suspension, which was passed through a 0.22 μm filter to make a uniform emulsion. Serial doubling dilutions of eryngial in culture medium plus 0.04% Triton-X were prepared, and 75 μl was added to each well. 75 μl of cell or spore suspensions in culture medium also were added to each well. The final concentration of Triton-X was 0.02%, and the final concentration of eryngial was 1% (10 mg/ml) at the highest concentration tested.
(§4) Dimethyl sulfoxide (DMSO) also was used as a solvent for eryngial. A solution of 12.5% eryngial in DMSO was the initial solution. Doubling dilutions were carried out in DMSO. The DMSO-eryngial solutions were diluted 100-fold into growth medium, resulting in a final concentration of 1% DMSO, and 0.125% (1,250 μg/ml) eryngial as the highest concentration tested.
(§5) Overnight bacterial cultures in LB medium were diluted into fresh LB to an OD600 of 0.02 to 0.03, and then diluted 1000-fold again in LB. […] Blank wells for each concentration of eryngial were prepared with plain culture medium added.
(§6) The 96 well plates were incubated at 37° for 24 hr (in a candle jar for S. pyogenes), and the OD630 was read on an EL800 universal microplate reader (Bio-Tek Instruments). Readings from duplicate wells were averaged, and readings from duplicate blank wells for each concentration of eryngial were subtracted to generate the final values. The minimum inhibitory concentration (MIC, μg/ml) was defined as the well with the highest dilution of eryngial in which no growth was observed.
(§7) To determine whether eryngial was merely inhibiting growth of the bacteria and fungi, or whether it also was having a killing effect, the minimum bactericidal concentrations (MBC, μg/ml) or minimum fungicidal concentrations (MFC, μg/ml) were determined. This was done by removing a 50 μl sample from a well after 24 hr (bacteria) or 96 hr (fungi) and diluting the samples in 5 ml of fresh culture medium. These tubes then were incubated at the appropriate temperature for 24-96 hr and observed for any signs of growth.

[6] = test system: Staphylococcus aureus; assay: Antibacterial MIC/MBC, 96 well broth dilution; format: cell-based; conditions: S. aureus, 24 hr in vitro, 0.02% Triton X-100
Description: as §2, §3, §4, §5, §6, §7

[7] = test system: Streptococcus pyogenes; assay: Antibacterial MIC/MBC, 96 well broth dilution; format: cell-based; conditions: S. pyogenes, 24 hr in vitro, DMSO as solvent
Description: as §2, §3, §4, §5, §6, §7

[8] = test system: S. stercoralis L3 larvae; conditions: after 120 hr of incubation, Forbes et al. (unpublished); cited from earlier work
[9] = 48 hr in vitro, listed as eryngial

Compound: CCCCCCCCC/C=C/C=O [Eryngial, trans-2-dodecenal]
- 24 hr LC50 ± 95% confidence intervals ([1]; 24 hr in vitro): 1.19 (0.96-1.40) mg/ml
- 24 hr LC95 ± 95% confidence intervals ([1]; 24 hr in vitro): 3.12 (2.57-4.16) mg/ml
- 24 hr LC95 ± 95% confidence intervals ([1]; 24 hr in vitro, listed as eryngial): 3.12 mg/mL
- 48 hr LC50 ± 95% confidence intervals ([1]; 48 hr in vitro): 0.76 (0.63-0.87) mg/ml
- 48 hr LC95 ± 95% confidence intervals ([1]; 48 hr in vitro): 2.31 (1.87-3.26) mg/ml
- 48 hr LC95 ± 95% confidence intervals [1, 9]: 1.02 mg/mL
- 24 hr LC95 ± 95% confidence intervals [2]: 2.91 (2.22-4.69) mg/ml
- 24 hr LC95 ± 95% confidence intervals ([2]; listed as eryngial): 2.91 mg/mL
- 48 hr LC50 ± 95% confidence intervals ([2]; 48 hr in vitro): 0.68 (0.62-0.75) mg/ml
- 48 hr LC95 ± 95% confidence intervals ([2]; 48 hr in vitro): 1.02 (0.91-1.20) mg/ml
- 48 hr LC95 ± 95% confidence intervals [2, 9]: 1.14 mg/mL
- 24 hr LC95 ± 95% confidence intervals [3]: 2.85 (2.20-4.40) mg/ml
- 24 hr LC95 ± 95% confidence intervals ([3]; listed as eryngial): 2.85 mg/mL
- 48 hr LC50 ± 95% confidence intervals ([3]; 48 hr in vitro): 0.50 (0.39-0.58) mg/ml
- 48 hr LC95 ± 95% confidence intervals ([3]; 48 hr in vitro): 1.14 (0.95-1.56) mg/ml
- 48 hr LC95 ± 95% confidence intervals [3, 9]: 2.31 mg/mL
- 24 hr LC95 ± 95% confidence intervals [4]: 0.45 (0.38-0.55) mg/ml
- 24 hr LC95 ± 95% confidence intervals ([4]; listed as eryngial): 0.45 mg/mL
- 48 hr LC95 ± 95% confidence intervals [4]: 0.31 (0.26-0.43) mg/ml
- 48 hr LC95 ± 95% confidence intervals ([4]; listed as eryngial): 0.31 mg/mL
- MBC [5]: 313 µg/mL (≈ 1720 µM)
- MIC [5]: 313 µg/mL (≈ 1720 µM)
- MBC [6]: 78 µg/mL (≈ 428 µM)
- MIC [6]: 78 µg/mL (≈ 428 µM)
- MBC [7]: 156 µg/mL (≈ 856 µM)
- MIC [7]: 156 µg/mL (≈ 856 µM)
- increase in effectiveness over ivermectin based on time (hr) taken to kill 50% (LT50) [8]: 7.1 fold
